This assay has as its target T1, HDAC6 (Homo sapiens, UniProt Q9UBN7).
T1 sequence (Q9UBN7 1-1215): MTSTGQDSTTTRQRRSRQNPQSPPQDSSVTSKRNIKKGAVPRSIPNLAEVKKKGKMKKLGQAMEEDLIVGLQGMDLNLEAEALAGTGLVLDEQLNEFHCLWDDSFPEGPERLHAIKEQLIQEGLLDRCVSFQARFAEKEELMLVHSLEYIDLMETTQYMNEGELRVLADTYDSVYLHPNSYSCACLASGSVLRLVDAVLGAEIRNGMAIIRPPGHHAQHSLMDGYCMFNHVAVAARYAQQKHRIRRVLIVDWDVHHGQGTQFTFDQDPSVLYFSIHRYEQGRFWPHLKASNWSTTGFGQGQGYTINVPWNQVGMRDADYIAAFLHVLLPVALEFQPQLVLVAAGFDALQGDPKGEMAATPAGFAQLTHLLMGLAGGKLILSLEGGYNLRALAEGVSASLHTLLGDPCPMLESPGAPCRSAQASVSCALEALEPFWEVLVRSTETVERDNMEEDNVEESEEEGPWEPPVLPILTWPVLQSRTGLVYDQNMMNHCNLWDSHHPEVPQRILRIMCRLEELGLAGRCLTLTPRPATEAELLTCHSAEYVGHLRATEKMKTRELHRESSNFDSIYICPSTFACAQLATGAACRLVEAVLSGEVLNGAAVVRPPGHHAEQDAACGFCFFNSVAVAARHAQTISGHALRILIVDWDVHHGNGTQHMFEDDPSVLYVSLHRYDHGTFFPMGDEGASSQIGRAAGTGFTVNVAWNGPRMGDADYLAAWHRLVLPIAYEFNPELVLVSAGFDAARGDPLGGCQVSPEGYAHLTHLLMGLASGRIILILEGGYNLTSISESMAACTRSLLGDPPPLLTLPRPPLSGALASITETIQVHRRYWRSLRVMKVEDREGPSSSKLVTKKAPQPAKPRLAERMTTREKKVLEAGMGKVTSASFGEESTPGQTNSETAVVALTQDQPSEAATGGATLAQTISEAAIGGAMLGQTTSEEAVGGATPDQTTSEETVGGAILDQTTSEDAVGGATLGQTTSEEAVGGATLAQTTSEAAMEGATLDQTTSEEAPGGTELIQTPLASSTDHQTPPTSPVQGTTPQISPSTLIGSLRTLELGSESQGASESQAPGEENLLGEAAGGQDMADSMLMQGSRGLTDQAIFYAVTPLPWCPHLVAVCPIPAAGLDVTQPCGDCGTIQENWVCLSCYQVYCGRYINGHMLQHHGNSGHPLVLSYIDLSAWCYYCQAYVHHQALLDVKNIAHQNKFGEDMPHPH
As to the kind of experiment: Human HDAC enzyme inhibitor Fluor-de-Lys assay, HDAC6. Type of assay: biochemical. The conditions noted are these: 1.3 nM enzyme, 2.5 μM substrate BML-KI104, 3 h pre-incubation, 60 min reaction; read-out: HDAC6_IC50. The source says: Recombinant human HDAC8 (catalog number BML-SE145-0100) and HDAC10 (catalog number BML-SE559-0050) enzymes, HDAC substrates BML-KI104 and BML-KI178, and HDAC developer solutions BML-KI105 and BML-KI176 were purchased from Enzo Life Sciences (Farmingdale, NY). Recombinant human HDAC5 and HDAC11 were purchased from BPS Bioscience (San Diego, CA)(catalog numbers 50045 and 50021). Substrate Boc-Lys(TFA)-AMC was obtained from Bachem (Bupendorf, Switzerland) (catalog number 1-1985). HDAC inhibitor suberoylanilide hydroxamic acid (SAHA) was obtained from Indofine (Hillsborough Township, NJ) and trichostatin A (TSA) was obtained from Sigma-Aldrich (St. Louis, MO). […] HEPES pH 8.0 was obtained from Boston BioProducts (Ashland, MA), Tween-20 from Fisher Scientific (Hampton, NH)(catalog number BP337), TCEP from Calbiochem and 7.5% bovine serum albumin (BSA) from Life Technologies (Carlsbad, CA) (catalog number 15260037). 384-well, black assay plates were obtained from Corning (Corning, NY) (catalog number 3575).
The histone deacetylase activities of HDAC1, HDAC2, HDAC3, HDAC6, and HDAC8 were measured in modified Fluor-de-Lys assays in 384-well format. In this assay, HDAC enzymes are initially incubated with an ε-acetyl (or -trifluoroacetyl)-L-lysine-containing substrate with a C-terminal amide having aminomethylcoumarin as the amine component. HDACs cleave the ε-acetyl group, rendering the resulting product susceptible to AMC cleavage by trypsin. The released AMC is then detected by its fluorescence.
The HDAC 1, 2 assays employed buffer A, which contained 20 mM HEPES, pH 8.0, 1 mM MgCl2, 137 mM NaCl, 2.7 mM KCl, 0.05% BSA. The HDAC3/SMRT assay employed buffer B, consisting of 20 mM HEPES, pH 8.0, 1 mM MgCl2, 50 mM NaCl, 2.7 mM KCl, 0.05% BSA, 0.005% Tween 20, and 10 μM IP4. The HDAC6 assay employed buffer C, consisting of 20 mM HEPES, pH 8.0, 1 mM MgCl2, 137 mM NaCl, 2.7 mM KCl, 0.5 mM TCEP (Calbiochem) and 0.05% BSA. The HDAC8 assay employed buffer D, consisting of 20 mM HEPES, pH 8.0, 1 mM MgCl2, 100 mM NaCl, 20 mM KCl, 0.1% n-octyl-β-D-glucoside (Anatrace, Maumee, OH) and 0.05% BSA. All steps were performed at room temperature (23° C.). The assay was performed by pre-incubating serial dilutions of test compounds with the target HDAC prior to initiation with substrate. Each compound was titrated in a 10-point dose response, using a 1:3 fold dilution scheme, with 0.15 ul of solution added by ECHO555 to the plate, followed by the addition of 20 μl of the appropriate HDAC isoform diluted in appropriate assay buffer. […] Final conditions used for each assay were: 1. HDAC 1, 0.3 nM total enzyme, 20 μM substrate BML-K1104; 2. HDAC 2, 1.5 nM total enzyme, 40 μM substrate BML-K1104; 3. HDAC 3/SMRT, 0.3 nM total enzyme, 20 μM substrate BML-K1104; 4. HDAC 6, 1.3 nM total enzyme, 2.5 μM substrate BML-K1104; 5. HDAC 8, 1.3 nM total enzyme, 200 μM substrate BML-K1178; the final high dose of test compound was 30 μM. For potent compounds, 900 nM was used as the final high dose. The reactions were stopped and developed by addition of 30 ul of HDAC developer solution containing a saturating level of HDAC inhibitor as follows: 1.

SMILES strings stand for the structures. pIC50: −log10 of the molar value. Where only a bound is given, the exact number is not on record here.

Data on two compounds can be found in US12365674B2, “Inhibitors of histone deacetylase useful for the treatment or prevention of HIV infection” (Merck Sharp & Dohme LLC, priority 2019, dated 2025).

As for `COc1cc2nc(C)ccc2cc1-c1cnc([C@H](COCCCC(=O)c2cc(C)on2)NC(=O)[C@H]2CC23CCN(C)CC3)[nH]1` [Compound 20, (1S)-N-{(1R)-1-[5-(7-methoxy-2-methylquinolin-6-yl)-1H-imidazol-2-yl]-2-[4-(5-methylisoxazol-3-yl)-4-oxobutoxy]ethyl}-6-methyl-6-azaspiro[2.5]octane-1-carboxamide], the pIC50 was below 6.05. As for `Cc1ccc2cc(-c3cnc([C@H](CSCCCC(=O)c4ncco4)NC(=O)[C@H]4CC45CCN(C)CC5)[nH]3)ccc2n1` [Compound 21, (1S)-6-methyl-N-[(1R)-1-[5-(2-methylquinolin-6-yl)-1H-imidazol-2-yl]-2-{[4-(1,3-oxazol-2-yl)-4-oxobutyl]sulfanyl}ethyl]-6-azaspiro[2.5]octane-1-carboxamide], the figure is 4.71.
